Assay results reported in paper PMC8191315 (European Journal of Medicinal Chemistry, 2021).

Biological target: SARS-CoV-2 RdRp (Severe acute respiratory syndrome coronavirus 2, UniProt P0DTD1)
Assay type: cell-based
Conditions: 5 μM and 10 μM, HEK293T cells, 24 h, real-time qRT-PCR

Row | SMILES | levels of viral plus- and minus-strand Gluc RNA
1 | O=C(CSc1c[nH]c2ccccc12)N(Cc1ccccc1)Cc1ccccc1 [6b2, N,N-dibenzyl-2-((1H-indol-3-yl)thio)acetamide] | decreased the levels of viral plus- and minus-strand Gluc RNA in a dose-dependent manner
2 | CN(Cc1ccccc1)C(=O)CSc1c[nH]c2ccccc12 [6b5, 2-((1H-indol-3-yl)thio)-N-benzyl-N-methylacetamide] | decreased the levels of viral plus- and minus-strand Gluc RNA in a dose-dependent manner
3 | COc1ccccc1CNC(=O)CSc1c[nH]c2c(-c3ccccc3)cccc12 [6c9, N-(2-methoxybenzyl)-2-((7-phenyl-1H-indol-3-yl)thio)acetamide] | decreased the levels of viral plus- and minus-strand Gluc RNA in a dose-dependent manner
4 | O=C(CSc1c[nH]c2cccc(Br)c12)N(Cc1ccccc1)Cc1ccccc1 [6d2, N,N-dibenzyl-2-((4-bromo-1H-indol-3-yl)thio)acetamide] | decreased the levels of viral plus- and minus-strand Gluc RNA in a dose-dependent manner
5 | CCOc1ccccc1CN(OC)C(=O)CSc1c[nH]c2cccc(Br)c12 [6d5, N-(2-ethoxybenzyl)-2-((4-bromo-1H-indol-3-yl)thio)-N-methoxyacetamide] | decreased the levels of viral plus- and minus-strand Gluc RNA in a dose-dependent manner
